Source: EP0117811A2, “Fungicidal pharmaceutical compositions for oral administration” (SANOFI S.A., priority 1983, dated 1984)
Where two headings read alike, the source gives them in different places.

Assay: Bioavailability in the baboon: plasma levels of omoconazole after oral administration (microbiological agar diffusion assay, test germ Candida macedoniensis)
Type: in vivo, babouin
Details: fasted baboons
Protocol: La biodisponibilité des compositions pharmaceutiques selon l'invention a été étudiée chez le babouin en comparaison avec le produit (I) seul.
Les études ont été conduites à la dose de 100 mg/kg d'omoconazole et les produits ont été administrés aux singes à jeun par sonde gastrique. […] Les dosages des taux plasmatiques d'omoconazole ont été effectués par une méthode microbiologique réalisée à l'aide d'une technique de diffusion en milieu gélosé avec comme germe test Candida macedoniensis.
Des essais ont été effectués selon la même méthode, avec les formulations des exemples 4, 5, 6, 9 et 14. Pour les 3 premiers cas, les formulations ont été administrées telles quelles (solution) tandis que les compositions des exemples 9 et 14 et l'omoconazole ont été administrés dans des gélules No. 2. […]

- AUC (baboon, 100 mg/kg omoconazole oral, mean of 4 animals, Ex 4, 5, 6 given as such, Ex 9, 14 and omoconazole in No. 2 capsules, read-out: Aire sous la courbe): 11600 ng·h/mL
- Cmax (baboon, 100 mg/kg omoconazole oral, mean of 4 animals, Ex 4, 5, 6 given as such, Ex 9, 14 and omoconazole in No. 2 capsules, read-out: Concentration maximale): 1350 ng/mL
- Tmax (baboon, 100 mg/kg omoconazole oral, mean of 4 animals, Ex 4, 5, 6 given as such, Ex 9, 14 and omoconazole in No. 2 capsules, read-out: Temps de C. Max.): 5.5 h
- AUC at 24 h (baboon, po, 100 mg/kg omoconazole by gastric tube, mean of 3 animals, sampling up to 24 h, read-out: aire sous la courbe): 11500 ng·h/mL
- Cmax (100 mg/kg omoconazole by gastric tube, mean of 3 animals): 1,35 µg/ml
Structure (SMILES): C/C(=C(/OCCOc1ccc(Cl)cc1)c1ccc(Cl)cc1Cl)n1ccnc1 [Omoconazole]
